Holding throughout (format): cell-based
One experiment addresses T1, KCNJ5^G151R (Homo sapiens, UniProt P48544, G151R).
T1 construct: expressed in transfected cells
T1 sequence (P48544 1-419 G151R): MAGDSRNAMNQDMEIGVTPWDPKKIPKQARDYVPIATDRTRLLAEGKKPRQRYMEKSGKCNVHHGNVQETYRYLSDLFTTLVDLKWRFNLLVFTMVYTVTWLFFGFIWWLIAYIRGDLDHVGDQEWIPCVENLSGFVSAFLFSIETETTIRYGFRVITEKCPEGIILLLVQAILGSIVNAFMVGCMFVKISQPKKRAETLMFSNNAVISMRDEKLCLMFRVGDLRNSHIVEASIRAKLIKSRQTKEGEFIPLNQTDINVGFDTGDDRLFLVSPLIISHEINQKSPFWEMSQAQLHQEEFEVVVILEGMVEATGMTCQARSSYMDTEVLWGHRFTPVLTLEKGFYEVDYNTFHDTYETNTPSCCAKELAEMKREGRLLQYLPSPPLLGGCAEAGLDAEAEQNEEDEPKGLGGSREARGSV
As to the kind of experiment: cell-based. The note with it: for inhibition of KCNJ5^G151R by synthesized macrolide derivatives: tested as in FIG. 7 (FIGS. 9 and 10). In a few lines: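 Viability is read as cellular ATP by CellTiter-Glo luminescence 72 h later at 37 °C. Uninduced and induced untreated cells set 100% and 0% effect; curves use a 4-parameter logistic fit.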

The next experiment addresses T2, KCNJ5^L168R (Homo sapiens, UniProt P48544, L168R).
T2 construct: expressed in transfected cells
T2 sequence (P48544 1-419 L168R): T1 sequence (P48544 1-419 G151R) with R151G, L168R
Briefly: Cell viability assay (ATP, CellTiter-Glo): rescue of KCNJ5^L168R-induced lethality in inducible HEK293 cells. The following applies: for L168R IC50 / IC50 / L168R maximum inhibition / L168R minimum inhibition: 10-point dilution 20 to 0.0391 μM, N=3, four-parameter fit; for inhibition of KCNJ5^L168R by synthesized macrolide derivatives: tested as in FIG. 7 (FIGS. 9 and 10). On the procedure:
WT or mutant human KCNJ5 cDNAs (Choi et al., 2011, Science 331:768-772) were subcloned into the pcDNA5/FRT/TO vector using BamHI and HindIII. Single copies of WT or mutant human KCNJ5 cDNAs expressed under the control of tetracycline-inducible promoter were introduced into HEK293 cells using the Flp-in T-Rex System (Invitrogen) according to the manufacturer's instructions. Cells were grown in selective media containing 10% Tet-system approved FBS (Clontech) until induction.
Assay plates were centrifuged and incubated overnight at 37° C. 20 nL was transferred from the compound source plate to the cell assay plate using an Aquarius (Tecan) with a 384-well pin tool (V&P Scientific). The final concentration of compound for screening was 10 μM and the final DMSO concentration was 0.1%. 1 μL of tetracycline (final concentration 1 μg/mL) was added to compound containing and negative control wells by Multidrop Combi to induce expression. 1 μL of media was added to positive control wells. Assay plates were centrifuged and incubated for 72 hours at 37° C., 5% CO2. CellTiter-Glo (Promega) was used to measure cell viability in the assay wells according to the manufacturer's instructions. 10 μL/well of CellTiter-Glo reagent was added to the assay plates using a MultiDrop Combi. The plates were shaken on a Thermomixer R (Eppendorf) at 1100 rpm for 1 minute and incubated in the dark for 10 minutes at room temperature. Luminescence was read on an Envision plate reader (PerkinElmer) with 0.3 second sampling time per well. Raw data (luminescence counts per second) was normalized to percent effect by the formula 100−(((sample−negative control mean)/(positive control mean−negative control mean))*100).
Data was analyzed using the programs Excel (Microsoft) and Prism (GraphPad). Errors are SD unless otherwise indicated in the legend. Dose-response curves were fitted with a four-parameter logistic equation: F(x)=D+(A−D)/(1+(x/C)^B), with A=minimum inhibition B=Hill's slope C=inflection point D=maximum inhibition Synthesis of Macrolide Derivatives
Cellular ATP levels were measured as a proxy for cell viability, using a commercially available luciferase assay (Crouch et al., 1993, Proc. Natl. Acad. Sci. U.S.A. 109:2533-2538).
Conditions were designed to maximize reproducibility and the signal-to-background ratios (S/B) (Zhang et al., 1999, J. Biomol. Screen 4:67-73) comparing ATP level in uninduced and induced cells. Screening was performed in 384-well plates; compounds were added 24 hours after plating, and channel expression was induced immediately after compound addition. ATP levels were measured 72 hours after induction.
A general note: ATP-based viability assays read luminescence as a measure of living cells.

The target in another experiment is T3, KCNJ5^WT (Homo sapiens, UniProt P48544).
T3 construct: expressed in transfected cells
T3 sequence (P48544 1-419): T1 sequence (P48544 1-419 G151R) with R151G
Briefly: Membrane potential assay (FLIPR dye) in inducible KCNJ5^WT HEK293 cells. The note with it: for WT IC50: 10-point dilution 20 to 0.0391 μM, N=3, four-parameter fit; for inhibition of KCNJ5^WT by synthesized macrolide derivatives: tested as in FIG. 7 (FIGS. 9 and 10). On the procedure: Single copies of WT or mutant human KCNJ5 cDNAs expressed under the control of tetracycline-inducible promoter were introduced into HEK293 cells using the Flp-in T-Rex System (Invitrogen) according to the manufacturer's instructions. Cells were grown in selective media containing 10% Tet-system approved FBS (Clontech) until induction.
20 μL of WT cells were plated into sterile black with clear bottom tissue culture-treated 384-well plates (Corning) at a density of 10000 cells/well using a Multidrop Combi. Assay plates were centrifuged at 500 rpm for 10 seconds and incubated overnight at 37° C. in a humidified 5% CO2 incubator. After the overnight incubation, 1 μL of tetracycline (final conc. 1 μg/mL) was added to all wells by Multidrop Combi to induce KCNJ5. Assay plates were centrifuged at 500 rpm for 10 seconds and incubated overnight at 37° C. in a humidified 5% CO2 incubator. The next day, 10 μL of medium was removed from each well using a PlateMate Plus (Thermo Scientific). 10 μL of Blue Formula FLIPR membrane potential dye (Molecular Devices) was added to cells using a Multichannel pipettor. Assay plates were incubated for 30 minutes. at 37° C. After incubation, 20 nL was transferred twice from the compound source plate to the cell assay plate using an Aquarius with a 384-well pin tool for a total transfer volume of 40 nL and a final DMSO concentration of 0.2%. 1 μL of 20 mM BaCl2 was added to positive control wells using a Multichannel pipettor. The assay plate was incubated 20 minutes at room temperature in the dark.
Changes in membrane potential were detected using a well-established fluorescence-based measure of membrane potential (FIG. 4).

Where [1] appears, read: 10-point dilution 20 to 0.0391 μM, N=3, four-parameter fit.

Positions count from the first letter of the chain named.

As to `CC[C@H]1OC(=O)[C@H](C)[C@@H](O[C@H]2C[C@@](C)(OC)[C@@H](O)[C@H](C)O2)[C@H](C)[C@@H](O[C@@H]2O[C@H](C)C[C@H](N(C)C)[C@H]2O)[C@](C)(O)C[C@](C)(F)C(=O)[C@H](C)[C@@H](O)[C@]1(C)O` [Flurithromycin, flurithromycin], the “G151R IC50” value at KCNJ5^G151R (setting [1]) is “No fit”. Moreover, at KCNJ5^G151R (macrolide series, dilution curves), the “inhibition of KCNJ5^MUT (structure-activity statement)” value is “negligible activity”. Besides, the “L168R IC50” value on KCNJ5^L168R was “No fit”. The “WT IC50” value on KCNJ5^WT was “No fit”.

Take `CC[C@H]1OC(=O)[C@H](C)[C@@H](O[C@H]2C[C@@](C)(OC)[C@@H](O)[C@H](C)O2)[C@H](C)[C@@H](O[C@@H]2O[C@H](C)C[C@H](N(C)C(C)C)[C@H]2O)[C@@]2(C)CC(C)=C(O2)[C@H](C)[C@@H](O)[C@]1(C)O` [Idremcinal, idremcinal]: on KCNJ5^G151R (setting [1]), the G151R maximum inhibition came to 93.39%, the G151R minimum inhibition is on record as 6.38% and the IC50 was found to be 600 nM. At KCNJ5^L168R, half-maximal inhibition (IC50) required 1990 nM, the L168R maximum inhibition is 66.69% and the L168R minimum inhibition is reported as −1.28%. In addition, the “WT IC50” value on KCNJ5^WT is given as “No fit”. The “WT IC50” value at KCNJ5^WT (listed as idremcinal) is “no dose response”.

At KCNJ5^G151R (setting [1]), `CC[C@H]1OC(=O)[C@H](C)[C@@H](O[C@H]2C[C@@](C)(OC)[C@@H](O)[C@H](C)O2)[C@H](C)[C@@H](O[C@@H]2O[C@H](C)C[C@H](NC)[C@H]2O)[C@](C)(O)C[C@@H](C)/C(=N\OCOCCOC)[C@H](C)[C@@H](O)[C@]1(C)O` [N-demethyl Roxithromycin, N-demethyl roxithromycin] displayed a G151R maximum inhibition of 96.20%, a G151R minimum inhibition of 4.50% and an IC50 of 820 nM. Further, at KCNJ5^L168R, 1180 nM corresponded to half-maximal inhibition (IC50), the L168R maximum inhibition is 76.95% and the L168R minimum inhibition was found to be 1.12%. The “dose response on KCNJ5^L168R” value at KCNJ5^L168R (tested at 1.1, 3.3 and 10 μM) is on record as “showed a dose response”. The “WT IC50” value on KCNJ5^WT is recorded as “No fit”.

With `CCCCN(C)[C@H]1C[C@@H](C)O[C@@H](O[C@@H]2[C@@H](C)[C@H](O[C@H]3C[C@@](C)(OC)[C@@H](O)[C@H](C)O3)[C@@H](C)C(=O)O[C@H](CC)[C@@](C)(O)[C@H](O)[C@@H](C)[C@@H](O)[C@H](C)C[C@@]2(C)O)[C@@H]1O` [PLUX33, N-demethyl-9-deoxo-9-hydroxy-N-butyl-(9S)-erythromycin], at KCNJ5^G151R, the “inhibition of KCNJ5^G151R by synthesized macrolide derivatives” value is listed as “significant inhibition”. On KCNJ5^L168R, the “inhibition of KCNJ5^L168R by synthesized macrolide derivatives” value is reported as “significant inhibition”. Also, at KCNJ5^WT, the “inhibition of KCNJ5^WT by synthesized macrolide derivatives” value is given as “no inhibition”.

Regarding `CC[C@@H](O)[C@@](C)(O)[C@@H]1OC(=O)[C@H](C)[C@@H](O[C@H]2C[C@@](C)(OC)[C@@H](O)[C@H](C)O2)[C@H](C)[C@@H](O[C@@H]2O[C@H](C)C[C@H](N(C)C)[C@H]2O)[C@@]2(C)CC(C)=C(O2)[C@@H]1C` [Pseudo Erythromycin A Enol Ether, pseudo erythromycin A enol ether], at KCNJ5^G151R (setting [1]), the G151R maximum inhibition is given as 11.13%, the G151R minimum inhibition worked out at 1.58% and the IC50 is 650 nM. Besides, the “L168R IC50” value on KCNJ5^L168R is recorded as “No Fit”. In addition, at KCNJ5^WT, the “WT IC50” value is “No fit”.

With “N-demethyl-8,9-anhydroerythromycin A 6,9-hemiacetal [PLUX36]”, the “inhibition of KCNJ5^G151R by synthesized macrolide derivatives” value on KCNJ5^G151R was “significant inhibition”. Further, the “inhibition of KCNJ5^L168R by synthesized macrolide derivatives” value at KCNJ5^L168R is recorded as “significant inhibition”. For the same compound, the “inhibition of KCNJ5^WT by synthesized macrolide derivatives” value on KCNJ5^WT is listed as “no inhibition”.

The IC50 is the concentration that inhibits the measured activity by half.

The record behind these values is patent US11484543B2, “Compositions and methods for diagnosing and treating diseases and disorders associated with mutant KCNJ5” (The Rockefeller University, priority 2017, dated 2022).
